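Interpolation was linear, between the two tested concentrations surrounding the appropriate level; five concentrations were tested over 48 hours in 96-well plates. GI50: concentration for 50% inhibition of growth.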 The source made the active and inactive calls. Rule as the data show it: active = GI50 up to about 1.1 µM and inactive = higher.
Key:
Experiment in all cases: NCI tumour cell line growth inhibition, 48 h
HT-29 = tested on: HT-29
NCI-H23 = tested on: NCI-H23
SN12C = tested on: SN12C
SK-MEL-5 = tested on: SK-MEL-5
U-251 = tested on: U-251
ACHN = tested on: ACHN
SNB-19 = tested on: SNB-19
HL-60 = tested on: HL-60
SF-268 = tested on: SF-268
SK-OV-3 = tested on: SK-OV-3
TK-10 = tested on: TK-10
UACC-62 = tested on: UACC-62
NCI/ADR-RES = tested on: NCI/ADR-RES
Malme-3M = tested on: Malme-3M
K562 = tested on: K562
T47D = tested on: T47D
SF-295 = tested on: SF-295
NCI-H226 = tested on: NCI-H226
EKVX = tested on: EKVX
OVCAR-8 = tested on: OVCAR-8
HCT-116 = tested on: HCT-116
MDA-N = tested on: MDA-N
BT-549 = tested on: BT-549
COLO 205 = tested on: COLO 205
SW-620 = tested on: SW-620
UACC-257 = tested on: UACC-257
PC-3 = tested on: PC-3
DU-145 = tested on: DU-145
CCRF-CEM = tested on: CCRF-CEM
IGROV-1 = tested on: IGROV-1
SK-MEL-2 = tested on: SK-MEL-2
A498 = tested on: A498
SR = tested on: SR
M14 = tested on: M14
A549 = tested on: A549
OVCAR-5 = tested on: OVCAR-5
MDA-MB-231 = tested on: MDA-MB-231
MOLT-4 = tested on: MOLT-4
UO-31 = tested on: UO-31
SNB-75 = tested on: SNB-75
MDA-MB-435 = tested on: MDA-MB-435
LOX IMVI = tested on: LOX IMVI
NCI-H522 = tested on: NCI-H522
HCT-15 = tested on: HCT-15
MCF7 = tested on: MCF7
SF-539 = tested on: SF-539
SK-MEL-28 = tested on: SK-MEL-28
RPMI-8226 = tested on: RPMI-8226
RXF 393 = tested on: RXF 393
CAKI-1 = tested on: CAKI-1
KM12 = tested on: KM12
786-0 = tested on: 786-0
Hs-578T = tested on: Hs-578T
HOP-62 = tested on: HOP-62
OVCAR-4 = tested on: OVCAR-4
HCC 2998 = tested on: HCC 2998
NCI-H460 = tested on: NCI-H460
OVCAR-3 = tested on: OVCAR-3
HOP-92 = tested on: HOP-92

CC1(C)OC2C(=O)C=C(COCc3ccccc3)C2O1 (configuration not stated)
GI50 (HT-29): 33 µM (inactive)
GI50 (NCI-H23): 19.2 µM (inactive)
GI50 (SN12C): 28 µM (inactive)
GI50 (SK-MEL-5): 13.1 µM (inactive)
GI50 (U-251): 29.2 µM (inactive)
GI50 (ACHN): 31.6 µM (inactive)
GI50 (SNB-19): 47.2 µM (inactive)
GI50 (HL-60): 11.2 µM (inactive)
GI50 (SF-268): 25.4 µM (inactive)
GI50 (SK-OV-3): 9.44 µM (inactive)
GI50 (TK-10): 28.2 µM (inactive)
GI50 (UACC-62): 12.3 µM (inactive)
GI50 (NCI/ADR-RES): 37.2 µM (inactive)
GI50 (Malme-3M): 19 µM (inactive)
GI50 (K562): 23.6 µM (inactive)
GI50 (T47D): 23 µM (inactive)
GI50 (SF-295): 35.2 µM (inactive)
GI50 (NCI-H226): 22.9 µM (inactive)
GI50 (EKVX): 37.5 µM (inactive)
GI50 (OVCAR-8): 34.2 µM (inactive)
GI50 (HCT-116): 23.6 µM (inactive)
GI50 (MDA-N): 34.8 µM (inactive)
GI50 (BT-549): 15.6 µM (inactive)
GI50 (COLO 205): 20.5 µM (inactive)
GI50 (SW-620): 23.6 µM (inactive)
GI50 (UACC-257): 35.5 µM (inactive)
GI50 (PC-3): 23.9 µM (inactive)
GI50 (DU-145): 44.6 µM (inactive)
GI50 (CCRF-CEM): 21 µM (inactive)
GI50 (IGROV-1): 19.8 µM (inactive)
GI50 (SK-MEL-2): 38.9 µM (inactive)
GI50 (A498): 56.6 µM (inactive)
GI50 (SR): 35.1 µM (inactive)
GI50 (M14): 26.3 µM (inactive)
GI50 (A549): > 100 µM (inactive)
GI50 (OVCAR-5): 31.1 µM (inactive)
GI50 (MDA-MB-231): 27.4 µM (inactive)
GI50 (MOLT-4): 28.4 µM (inactive)
GI50 (UO-31): 21.9 µM (inactive)
GI50 (SNB-75): > 10 µM (inactive)
GI50 (MDA-MB-435): 25.2 µM (inactive)
GI50 (LOX IMVI): 25.6 µM (inactive)
GI50 (NCI-H522): 16.5 µM (inactive)
GI50 (HCT-15): 35.2 µM
GI50 (MCF7): 34 µM (inactive)
GI50 (SF-539): 30 µM (inactive)
GI50 (SK-MEL-28): 30 µM (inactive)
GI50 (RPMI-8226): 24.8 µM (inactive)
GI50 (RXF 393): 15.5 µM (inactive)
GI50 (CAKI-1): 35.3 µM (inactive)
GI50 (KM12): 21.5 µM (inactive)
GI50 (786-0): 42.8 µM (inactive)
GI50 (Hs-578T): 27 µM (inactive)
GI50 (HOP-62): 26.4 µM (inactive)

CCn1c(SCC(=O)NNC(=S)Nc2ccc(C)cc2)nc2ccccc2c1=O
GI50 (HT-29): > 100 µM (inactive)
GI50 (NCI-H23): > 100 µM (inactive)
GI50 (SN12C): > 100 µM (inactive)
GI50 (SK-MEL-5): > 100 µM (inactive)
GI50 (U-251): > 100 µM (inactive)
GI50 (ACHN): > 100 µM (inactive)
GI50 (SNB-19): > 100 µM (inactive)
GI50 (HL-60): > 100 µM (inactive)
GI50 (SF-268): 57.3 µM (inactive)
GI50 (SK-OV-3): > 100 µM (inactive)
GI50 (TK-10): 85.5 µM (inactive)
GI50 (UACC-62): > 100 µM (inactive)
GI50 (NCI/ADR-RES): > 100 µM (inactive)
GI50 (Malme-3M): > 100 µM (inactive)
GI50 (K562): 51.9 µM (inactive)
GI50 (T47D): 65.5 µM (inactive)
GI50 (SF-295): > 100 µM (inactive)
GI50 (OVCAR-4): 78.9 µM (inactive)
GI50 (NCI-H226): > 100 µM (inactive)
GI50 (EKVX): > 100 µM (inactive)
GI50 (HCC 2998): > 100 µM (inactive)
GI50 (OVCAR-8): > 100 µM (inactive)
GI50 (HCT-116): > 100 µM (inactive)
GI50 (MDA-N): > 100 µM (inactive)
GI50 (BT-549): > 100 µM (inactive)
GI50 (COLO 205): > 100 µM (inactive)
GI50 (SW-620): > 100 µM (inactive)
GI50 (UACC-257): > 100 µM (inactive)
GI50 (PC-3): > 100 µM (inactive)
GI50 (DU-145): > 100 µM (inactive)
GI50 (CCRF-CEM): > 100 µM (inactive)
GI50 (IGROV-1): > 100 µM (inactive)
GI50 (SK-MEL-2): > 100 µM (inactive)
GI50 (NCI-H460): 1.6 µM (inactive)
GI50 (A498): > 100 µM (inactive)
GI50 (SR): 40.6 µM (inactive)
GI50 (M14): > 100 µM (inactive)
GI50 (A549): > 100 µM (inactive)
GI50 (OVCAR-5): > 100 µM (inactive)
GI50 (MDA-MB-231): > 100 µM (inactive)
GI50 (MOLT-4): 27.1 µM (inactive)
GI50 (UO-31): 22 µM (inactive)
GI50 (SNB-75): > 100 µM (inactive)
GI50 (MDA-MB-435): > 100 µM (inactive)
GI50 (LOX IMVI): > 100 µM (inactive)
GI50 (NCI-H522): > 100 µM (inactive)
GI50 (HCT-15): > 100 µM
GI50 (OVCAR-3): > 100 µM (inactive)
GI50 (MCF7): > 100 µM (inactive)
GI50 (SF-539): > 100 µM (inactive)
GI50 (SK-MEL-28): > 100 µM (inactive)
GI50 (RPMI-8226): 70.1 µM (inactive)
GI50 (RXF 393): > 100 µM (inactive)
GI50 (KM12): > 100 µM (inactive)
GI50 (786-0): > 100 µM (inactive)
GI50 (Hs-578T): > 100 µM (inactive)
GI50 (HOP-62): > 100 µM (inactive)

O=[N+]([O-])/C(C(Cl)=C(Cl)Cl)=C(\N1CCCCC1)n1nnc2ccccc21
GI50 (HT-29): 19.5 µM (inactive)
GI50 (NCI-H23): 19.1 µM (inactive)
GI50 (SN12C): 18.3 µM (inactive)
GI50 (SK-MEL-5): 17.5 µM (inactive)
GI50 (U-251): 16.9 µM (inactive)
GI50 (ACHN): 19.7 µM (inactive)
GI50 (SNB-19): 20.9 µM (inactive)
GI50 (SF-268): 20.8 µM (inactive)
GI50 (SK-OV-3): 24.9 µM (inactive)
GI50 (TK-10): 18.2 µM (inactive)
GI50 (UACC-62): 18.6 µM (inactive)
GI50 (NCI/ADR-RES): 29.6 µM (inactive)
GI50 (Malme-3M): 21.6 µM (inactive)
GI50 (K562): 8.41 µM (inactive)
GI50 (T47D): 33.3 µM (inactive)
GI50 (SF-295): 17.5 µM (inactive)
GI50 (OVCAR-4): 47.1 µM (inactive)
GI50 (NCI-H226): 20 µM (inactive)
GI50 (EKVX): 8.47 µM (inactive)
GI50 (OVCAR-8): 19.9 µM (inactive)
GI50 (HCT-116): 18.9 µM (inactive)
GI50 (MDA-N): 20.8 µM (inactive)
GI50 (BT-549): 23.3 µM (inactive)
GI50 (COLO 205): 17.8 µM (inactive)
GI50 (HOP-92): 19.3 µM (inactive)
GI50 (SW-620): 19.1 µM (inactive)
GI50 (UACC-257): 17.9 µM (inactive)
GI50 (PC-3): 17.6 µM (inactive)
GI50 (DU-145): 18.7 µM (inactive)
GI50 (IGROV-1): 16.2 µM (inactive)
GI50 (SK-MEL-2): 17.1 µM (inactive)
GI50 (NCI-H460): 22.4 µM (inactive)
GI50 (A498): 19.2 µM (inactive)
GI50 (SR): 16.4 µM (inactive)
GI50 (M14): 17.3 µM (inactive)
GI50 (A549): 22.6 µM (inactive)
GI50 (OVCAR-5): 17.8 µM (inactive)
GI50 (MDA-MB-231): 17.3 µM (inactive)
GI50 (MOLT-4): 0.443 µM (active)
GI50 (UO-31): 18.2 µM (inactive)
GI50 (SNB-75): 25.6 µM (inactive)
GI50 (MDA-MB-435): 31.6 µM (inactive)
GI50 (LOX IMVI): 16.7 µM (inactive)
GI50 (NCI-H522): 20.3 µM (inactive)
GI50 (HCT-15): 17.8 µM
GI50 (OVCAR-3): 17.9 µM (inactive)
GI50 (MCF7): 25.4 µM (inactive)
GI50 (SF-539): 17.3 µM (inactive)
GI50 (SK-MEL-28): 22.3 µM (inactive)
GI50 (RPMI-8226): 17.2 µM (inactive)
GI50 (RXF 393): 16.3 µM (inactive)
GI50 (CAKI-1): 15.3 µM (inactive)
GI50 (KM12): 25.8 µM (inactive)
GI50 (786-0): 18.5 µM (inactive)
GI50 (Hs-578T): 32.9 µM (inactive)
GI50 (HOP-62): 22.2 µM (inactive)

From ChEMBL document CHEMBL1201862, “PubChem BioAssay data set” (2004)
